In one assay the target is T1, KLK5 (Homo sapiens, UniProt Q9Y337).
T1 construct: purchased Novoprotein
T1 sequence (Q9Y337 23-293): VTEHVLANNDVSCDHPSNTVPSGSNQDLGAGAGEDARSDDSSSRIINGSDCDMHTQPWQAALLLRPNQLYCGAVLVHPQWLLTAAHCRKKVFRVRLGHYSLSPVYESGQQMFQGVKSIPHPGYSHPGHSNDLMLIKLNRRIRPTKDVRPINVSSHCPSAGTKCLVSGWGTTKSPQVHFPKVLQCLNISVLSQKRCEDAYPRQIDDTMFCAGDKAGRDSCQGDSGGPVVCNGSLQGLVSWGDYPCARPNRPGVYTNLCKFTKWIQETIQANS
Put plainly: biochemical. The protocol:
(§1) All assays were performed on 96-well microplates and the change in relative fluorescence unit (RFU) was measured by fluorescence spectrometer (BMG FLUOstar OPTIMA). The excitation/emission wavelength was 360/460 nm for the substrate Boc-VPR-AMC (Bachem AG, Hauptstrasse, Switzerland) and MeOSuc-AAPV-AMC (Bachem AG, Hauptstrasse, Switzerland) and 485/520 nm for BODIPY_FL casein (Invitrogen, Carlsbad, US). Stock solution of Boc-VPR-AMC was prepared by dissolving the solid in dimethyl sulfoxide to 100 mM and 10 mM for MeOSuc-AAPV. For BODIPY_FL casein, it was reconstituted to 1 mg/mL in 1xPBS. […] The % of inhibition was calculated by the following equation: % of Inhibition=(1−(Sample RFU − Min RFU)/(Max RFU − Min RFU)) X100
(§2) Each inhibition curves were done in triplicates with a minimum of five concentration points fitted. Fitting of each curve was done using SigmaPlot with the Four Parameter Logistic Function and the IC50 calculated. […] All tested compounds were reconstituted to stock solution in water.
(§3) The diluent for all the tested compounds, protein and substrate (except KLK7, which was done with 10 mM Tris pH 7.8) was 1xPBS pH 8.0–8.9. The serially diluted ligands were mixed with diluted bovine trypsin (Sigma, Dorset, U.K.) or activated KLK14, or KLK5, or activated KLK8 or matriptase (catalytic domain only, >90% purity by SDS-PAGE, endotoxin <0.1 ng/μg, R&D, Minneapolis, U.S.) or activated KLK7 or human neutrophil elastase (purified from human plasma, >95% purity by SDS-PAGE, Abcam, Cambridge, U.K.) or porcine pancreatic elastase 1 (Sigma, Dorset, U.K.) or human plasma kallikrein or human plasma plasmin (purified from human plasma, ≥95% purity by SDS-PAGE, BioVision, Milpitas, U.S.). 20μL of the ligand-protein mixture was pipetted to a well of a 96-well microplate in triplicates. The reaction was started by addition of 90–100 μL of the diluted substrate solution (contained 0.05% v/v Brij35) and the plate incubated at 25°C but 37°C for KLK7. RFU reading for each well was taken 6 minutes (trypsin) or 15 minutes (KLK14, KLK5, KLK8, matriptase, human neutrophil elastase, porcine pancreatic elastase 1, plasma kallikrein and plasmin) or 20 hours (KLK7) after substrate addition.
There are two previously reported Km values for KLK5 and its substrate Boc-VPR-AMC which allowed the IC50 to Ki conversion. Ki values were calculated according to the Cheng-Prusoff equation Ki= IC50/1+[S]/Km for single site competitive binding.

Another assay concerns the target Human Plasma Kallikrein (Homo sapiens, UniProt P03952). The assay can be described thus: Human plasma kallikrein inhibition, Boc-VPR-AMC assay. The class given is biochemical. The conditions noted are these: read-out: % inhibition of Human Plasma Kallikrein. The protocol:
as §1, §2, §3

The target of assay [1] is T2, Porcine Pancreatic Elastase 1 (Sus scrofa, UniProt P00772).
T2 construct: purchased Sigma
T2 sequence (P00772 27-266): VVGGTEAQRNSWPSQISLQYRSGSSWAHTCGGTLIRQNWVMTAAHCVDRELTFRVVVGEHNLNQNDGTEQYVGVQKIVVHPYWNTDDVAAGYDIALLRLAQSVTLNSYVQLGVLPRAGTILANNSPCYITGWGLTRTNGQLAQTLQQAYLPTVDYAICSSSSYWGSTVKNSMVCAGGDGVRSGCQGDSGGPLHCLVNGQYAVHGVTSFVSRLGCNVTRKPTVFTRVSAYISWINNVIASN
The assay can be described thus: Porcine pancreatic elastase 1 inhibition, MeOSuc-AAPV-AMC assay. The class given is biochemical. The following applies: read-out: % inhibition of Porcine Pancreatic Elastase 1. As to the method: as §1, §2, §3

The next assay has as its target T3, KLK14 (Homo sapiens, UniProt Q9P0G3).
T3 construct: purchased R&D
T3 sequence (Q9P0G3 25-251): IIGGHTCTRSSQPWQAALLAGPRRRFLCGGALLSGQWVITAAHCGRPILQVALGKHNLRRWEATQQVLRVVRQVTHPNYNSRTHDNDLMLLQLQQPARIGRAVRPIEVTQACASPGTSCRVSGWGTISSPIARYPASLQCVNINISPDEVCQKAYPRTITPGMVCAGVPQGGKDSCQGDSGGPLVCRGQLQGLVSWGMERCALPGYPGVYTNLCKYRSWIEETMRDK
The assay can be described thus: biochemical. The class given is biochemical. The protocol:
All assays were performed on 96-well microplates and the change in relative fluorescence unit (RFU) was measured by fluorescence spectrometer (BMG FLUOstar OPTIMA). […] Stock solution of Boc-VPR-AMC was prepared by dissolving the solid in dimethyl sulfoxide to 100 mM and 10 mM for MeOSuc-AAPV. For BODIPY_FL casein, it was reconstituted to 1 mg/mL in 1xPBS. […] The % of inhibition was calculated by the following equation: % of Inhibition=(1−(Sample RFU − Min RFU)/(Max RFU − Min RFU)) X100
as §2
KLK7 and KLK14 were activated by addition of 1 mM f/c CaCl2 (Sigma, Dorset, U.K.), 0.05% v/v Brij35 (Sigma, Dorset, U.K.), 20 nM f/c thermolysin (Sigma, Dorset, U.K.) and incubated at 37°C for 1 hour. The reaction was stopped by addition of ethylenediaminetetraacetic acid (EDTA, 50 mM f/c). […] The RFU value reached by the thermolysin control was used as the minimum RFU for calculating the % of inhibition for KLK7.
The diluent for all the tested compounds, protein and substrate (except KLK7, which was done with 10 mM Tris pH 7.8) was 1xPBS pH 8.0–8.9. […] 20μL of the ligand-protein mixture was pipetted to a well of a 96-well microplate in triplicates. The reaction was started by addition of 90–100 μL of the diluted substrate solution (contained 0.05% v/v Brij35) and the plate incubated at 25°C but 37°C for KLK7. RFU reading for each well was taken 6 minutes (trypsin) or 15 minutes (KLK14, KLK5, KLK8, matriptase, human neutrophil elastase, porcine pancreatic elastase 1, plasma kallikrein and plasmin) or 20 hours (KLK7) after substrate addition.

[2] abbreviates: calculated from Table 3 IC50 by Cheng-Prusoff equation, read-out: Ki, KLK5 (converted).
The mark [3] stands for this setting: enzyme 10 nM, Boc-VPR-AMC 42 μM, 1xPBS pH 8.0–8.9, 25°C, 15 minutes.
Setting [4] is: at 10 μM, enzyme 14 nM, Boc-VPR-AMC 42 μM.
[5] abbreviates: at 10 μM, enzyme 46 nM, MeOSuc-AAPV-AMC 41 μM.

Like-named read-outs stand apart in the source and are kept apart here. Positions of bridges follow the written chain, without caps; N, C: chain ends. Residues, ends and D or L forms follow the SMILES beside them.

In general, Ki refers to a dissociation constant, usually derived from enzyme kinetics or from competition with a known ligand. By IC50 is commonly meant the midpoint of a concentration-inhibition curve. The low end stands for greater potency in that assay, the high end for weaker potency in that assay. The term inhibition denotes the percentage by which the read-out fell short of the control.

Human Plasma Kallikrein, sequence (P03952 20-638): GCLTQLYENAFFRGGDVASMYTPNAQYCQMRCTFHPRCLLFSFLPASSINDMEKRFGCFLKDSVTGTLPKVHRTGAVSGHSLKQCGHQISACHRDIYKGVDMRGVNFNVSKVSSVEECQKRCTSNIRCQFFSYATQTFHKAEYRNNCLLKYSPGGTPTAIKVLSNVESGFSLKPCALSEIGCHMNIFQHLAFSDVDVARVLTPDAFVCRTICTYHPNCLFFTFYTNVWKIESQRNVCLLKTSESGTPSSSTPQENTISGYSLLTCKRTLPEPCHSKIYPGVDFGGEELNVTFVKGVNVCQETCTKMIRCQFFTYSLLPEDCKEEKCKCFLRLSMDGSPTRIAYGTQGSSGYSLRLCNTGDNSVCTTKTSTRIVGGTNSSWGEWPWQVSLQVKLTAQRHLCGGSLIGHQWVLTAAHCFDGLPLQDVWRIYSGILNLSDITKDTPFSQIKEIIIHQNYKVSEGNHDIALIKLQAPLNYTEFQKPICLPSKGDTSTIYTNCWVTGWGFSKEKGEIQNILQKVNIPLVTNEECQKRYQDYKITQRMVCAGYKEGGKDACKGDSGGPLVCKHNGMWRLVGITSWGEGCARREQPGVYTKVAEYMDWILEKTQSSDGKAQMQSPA

In the case of `CC[C@H](C)[C@@H]1NC(=O)[C@H](CO)NC(=O)[C@H](CCCCN)NC(=O)[C@H]([C@@H](C)O)NC(=O)[C@@H]2CSSC[C@H](NC(=O)[C@H](Cc3c[nH]cn3)NC(=O)[C@@H]3CCCN3C(=O)[C@@H]3CCCN3C1=O)C(=O)N[C@@H](Cc1ccccc1)C(=O)N1CCC[C@H]1C(=O)N[C@@H](CC(=O)O)C(=O)NCC(=O)N[C@@H](CCCNC(=N)N)C(=O)N2` [Analogue I10H] (cyclo(CFPDGRCTKSIPPH); disulfide 1-7), the Ki at KLK5 (setting [2]) is 478 nM. For the same compound, the IC50 is 523 ± 11 nM against KLK5 (setting [3]) and 470 ± 47 nM on KLK14 (enzyme 10 nM, Boc-VPR-AMC 45 μM, 25°C, 15 minutes). In addition, the inhibition at 10 µM (on Human Plasma Kallikrein (setting [4]); in assay [1] (setting [5])) was 0% each time. Further, on KLK14 (from Table 3 IC50), the “fold potency drop on KLK14 compared to native SFTI” value is about 20 fold.
In the case of `CC[C@H](C)[C@@H]1NC(=O)[C@@H]2CCCN2C(=O)[C@@H]2CCCN2C(=O)[C@H]([C@@H](C)CC)NC(=O)[C@H](CO)NC(=O)[C@H](CCCCN)NC(=O)[C@H]([C@@H](C)O)NC(=O)[C@@H]2CSSC[C@H](NC1=O)C(=O)N[C@@H](Cc1ccccc1)C(=O)N1CCC[C@H]1C(=O)N[C@@H](CC(=O)O)C(=O)NCC(=O)N[C@@H](CCCNC(=N)N)C(=O)N2` [Native SFTI, Sunflower Trypsin Inhibitor 1, reference compound], the Ki at KLK5 (setting [2]) was 210 nM. The IC50 on KLK5 (setting [3]) was determined as 230 ± 3 nM. The inhibition at 10 µM (at Human Plasma Kallikrein (setting [4]); in assay [1] (setting [5])) was 0% in each case.
`CC[C@H](C)[C@@H]1NC(=O)[C@H](CO)NC(=O)[C@H](CCCCN)NC(=O)[C@H]([C@@H](C)O)NC(=O)[C@@H]2CSSC[C@H](NC(=O)[C@H](Cc3c[nH]cn3)NC(=O)[C@@H]3CCCN3C(=O)[C@@H]3CCCN3C1=O)C(=O)N[C@@H](Cc1c[nH]c3ccccc13)C(=O)N1CCC[C@H]1C(=O)N[C@@H](CC(=O)O)C(=O)NCC(=O)N[C@@H](CCCNC(=N)N)C(=O)N2` [Analogue 2] (cyclo(CTKSIPPHCWPDGR); disulfide 1-9): the inhibition at 10 µM (on Human Plasma Kallikrein; in assay [1]) was 0% each time. This compound also came in with an IC50 at KLK14 of 85 ± 6 nM.
Regarding `CC[C@H](C)[C@@H]1NC(=O)[C@H](CO)NC(=O)[C@H](CCCNC(=N)N)NC(=O)[C@H]([C@@H](C)O)NC(=O)[C@@H]2CSSC[C@H](NC(=O)[C@H](Cc3c[nH]cn3)NC(=O)[C@@H]3CCCN3C(=O)[C@@H]3CCCN3C1=O)C(=O)N[C@@H](Cc1c[nH]c3ccccc13)C(=O)N1CCC[C@H]1C(=O)N[C@@H](CC(=O)O)C(=O)NCC(=O)N[C@@H](CCCNC(=N)N)C(=O)N2` [Analogue 6] (cyclo(CTRSIPPHCWPDGR); disulfide 1-9), the IC50 against KLK5 was found to be 56 ± 0.5 nM; against KLK14, 24 ± 2 nM. Further, on KLK5, the affinity, expressed as Ki, was 51 nM. Moreover, the inhibition at 10 µM turned out to be 15% at Human Plasma Kallikrein and 0% in assay [1].

The values are drawn from paper PMC5100903, “Tissue Kallikrein Inhibitors Based on the Sunflower Trypsin Inhibitor Scaffold – A Potential Therapeutic Intervention for Skin Diseases” (PLoS ONE, 2016).
